Converted amounts (≈) assume the structure as drawn. Read-outs that look alike come from different tables or passages of the source.
Tests used:
[1] = test system: Aspergillus niger ATCC 9508; experiment: Antifungal screening, broth microdilution MIC; format: cell-based; conditions: for MIC: ATCC9508, Aspergillus niger ATCC 9508
Method: (§1) Antifungal screening of 1
(§2) Antifungal screening was performed by Micromyx, LLC (Kalamazoo, Michigan, USA). Test organisms were either reference strains from the American Type Culture Collection (ATCC; Manassas, VA), the Centers for Disease Control and Prevention (CDC; Atlanta, GA), or clinical isolates from the Micromyx (MMX) collection. Upon receipt at Micromyx, the isolates were streaked under suitable conditions onto agar medium appropriate to each organism. The yeast isolates were incubated for 24 hr at 35 °C and the fungi were incubated for 7 to 13 days at 35 °C, as appropriate. Colonies harvested from these growth plates were resuspended in the appropriate medium containing a cryoprotectant. Aliquots of each suspension were then frozen […]
(§3) Prior to testing, the yeast isolates were streaked from frozen vials onto Sabouraud Dextrose Agar (SAB; Becton Dickenson [BD]/BBL; Sparks, MD, Lot No. 2228660) and were incubated at 35°C for 24 hr. Additional fungal isolates were streaked from frozen vials onto potato dextrose agar (BD/BBL; Sparks, MD, Lot No. 2046481) and incubated under optimal conditions for […]
(§4) All MIC measurements were performed in RPMI1640 from Hyclone Laboratories (Logan, UT;
(§5) Cat. No. SH3001104; Lot No. AC10257966A) buffered with MOPS to pH-7 from Millipore […]
(§6) MIC values were determined using a broth microdilution procedure described by CLSI. 5,6.
(§7) Automated liquid handlers (Multidrop 384, Labsystems, Helsinki, Finland; Biomek 3000 and […]
(§8) Biomek FX, Beckman Coulter Fullerton CA) were used to conduct serial dilutions and liquid […]
(§9) Solutions of 1 were added in an 11 point 2x serial dilution in DMSO with a maximum tested concentration of 32 μg/ml in the culture medium. Drug solution was added at 1% v/v into 200 μl […]
(§10) A standardized inoculum of each test organism was prepared in appropriate media per CLSI methods.5,6 The plates were then inoculated with 10 µL of the diluted inoculum using the Biomek 3000 from low to high drug concentration, resulting in a final concentration of approximately 0.5 to 2.5 x 10^3 CFU/mL for yeast and 0.2 to 2.5 x 10^4 CFU/mL for the other fungi. An un-inoculated plate was incubated for the purpose of assessing solubility of the drug […]
(§11) The plates were stacked 3 to 4 high, covered with a sterile lid on the top plate, and incubated aerobically at 35 °C for 24, 48, and 72 h. For yeast, both the MIC based on complete inhibition and 50% inhibition were reported at 24 and 48 h. For other fungal isolates, the MIC values were recorded at 24 and 48 hr and were based on complete inhibition and 50% inhibition.
(§12) Intact protein LCMS analysis
(§13) 10 μM of recombinant S. cerevisiae ALS was incubated with 10 μM compound 1 in buffer (50 mM Tris pH 7.5, 100 mM KCl, 10 uM FAD, 1 mM TPP, 10 mM MgCl2 (with 2.5% DMSO from compound)) at 22 °C for 30 min. Unreacted 1 was removed by passing the reaction mixture through a 30 kDa MWCO filter (Millipore). The collected protein was then denatured and reduced by incubation with 6 M urea and 10 mM DTT at 37 °C for 1 h followed by 20 mM iodoacetamide alkylation for 30 min in dark. This reaction mixture then underwent buffer exchange into 100 mM Tris-HCl pH 8.0 and 10 mM CaCl2 buffer using a 30 kDa MWCO filter.
(§14) The protein was then incubated with sequencing grade chymotrypsin (Promega) (15:1,w/w) for […]
(§15) After digestion, the peptide mixture was immediately analysed by LC-MS/MS using a Waters I-class UPLC equipped with an ACQUITY UPLC BEH C18 column (2.1x50 mm, 1.7 µm, Waters) at 50 °C coupled to a Waters Synapt G2Si MS. The sample was injected and subjected to an LC gradient starting from 0.5% mobile phase B (ACN with 0.1% formic acid) for 5 min with linear increase to 40% B over 35 min. Mobile phase A was 0.1% formic acid water. Flow rate was maintained at 0.3 ml/min. MS/MS data was acquired in positive ionization mode with data dependent MS/MS acquisition. Peptide mapping was performed with PEAKs Studio 8.0 (Bioinformatics Solutions Inc.) followed by manual review to identify peptides putatively modified by covalent addition of 1. […]

[2] = test system: Aspergillus terreus ATCC MYA-3628; experiment: Antifungal screening, broth microdilution MIC; format: cell-based; conditions: for MIC: Aspergillus terreus ATCC MYA-3628
Method: as §1, §2, §3, §4, §5, §6, §7, §8, §9, §10, §11, §12, §13, §14, §15

[3] = test system: Fusarium solani ATCC MYA-3636; experiment: Antifungal screening, broth microdilution MIC; format: cell-based; conditions: for MIC: Fusarium solani ATCC MYA-3636
Method: as §1, §2, §3, §4, §5, §6, §7, §8, §9, §10, §11, §12, §13, §14, §15

[4] = test system: Mucor circinelloides ATCC 24905; experiment: Antifungal screening, broth microdilution MIC; format: cell-based; conditions: for MIC: ATCC24905, Mucor circinelloides ATCC 24905
Method: as §1, §2, §3, §4, §5, §6, §7, §8, §9, §10, §11, §12, §13, §14, §15

[5] = test system: Rhizopus oryzae ATCC 11886; experiment: Antifungal screening, broth microdilution MIC; format: cell-based; conditions: for MIC: Rhizopus arrhizus, ATCC11886, Rhizopus oryzae ATCC 11886
Method: as §1, §2, §3, §4, §5, §6, §7, §8, §9, §10, §11, §12, §13, §14, §15

[6] = test system: Scedosporium apiospermum ATCC MYA-3635; experiment: Antifungal screening, broth microdilution MIC; format: cell-based; conditions: for MIC: Scedosporium apiospermum ATCC MYA-3635
Method: as §1, §2, §3, §4, §5, §6, §7, §8, §9, §10, §11, §12, §13, §14, §15

[7] = Plasma stability, mouse; format: in vitro ADME; conditions: read-out: Plasma t1/2 Mouse
[8] = Plasma stability, human; format: in vitro ADME; conditions: read-out: Plasma t1/2 Human
[9] = target: T1, S. cerevisiae ALS (Saccharomyces cerevisiae, UniProt P07342); experiment: Kinetic characterization: IC50 vs concentration of active ALS; format: biochemical; conditions: IC50 equal to half the concentration of active ALS
T1 construct: made in house; host or cells: E. coli BL21 (DE3), pET28a-ScILV2

[10] = set-up: method as in PMID 41148120; conditions: another study; cited from earlier work
[11] = 24 hr, read-out: MIC 100% growth inhibition
[12] = 24 hr, read-out: MIC >50% growth inhibition
[13] = 48 hr, read-out: MIC 100% growth inhibition
[14] = 48 hr, read-out: MIC >50% growth inhibition

T1 sequence (P07342 58-687): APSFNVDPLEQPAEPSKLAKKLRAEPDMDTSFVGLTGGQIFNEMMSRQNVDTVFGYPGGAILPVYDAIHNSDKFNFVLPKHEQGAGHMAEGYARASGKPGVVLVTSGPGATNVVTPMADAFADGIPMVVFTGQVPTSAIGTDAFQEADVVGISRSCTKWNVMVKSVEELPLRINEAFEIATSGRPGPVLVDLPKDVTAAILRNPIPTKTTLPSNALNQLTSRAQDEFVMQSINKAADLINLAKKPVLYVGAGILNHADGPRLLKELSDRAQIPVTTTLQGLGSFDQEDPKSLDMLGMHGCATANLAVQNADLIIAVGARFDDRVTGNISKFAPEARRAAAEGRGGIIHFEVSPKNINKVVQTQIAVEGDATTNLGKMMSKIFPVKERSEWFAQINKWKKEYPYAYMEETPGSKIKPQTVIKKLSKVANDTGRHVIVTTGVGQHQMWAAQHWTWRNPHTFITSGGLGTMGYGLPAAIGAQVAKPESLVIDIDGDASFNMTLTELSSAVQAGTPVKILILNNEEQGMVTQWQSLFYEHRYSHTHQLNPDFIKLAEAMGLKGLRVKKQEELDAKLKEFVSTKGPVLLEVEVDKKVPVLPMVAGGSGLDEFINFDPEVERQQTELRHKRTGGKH

CCCC1C(C)=CC2CC=CC3(C)C2C1C(=O)C31C(=O)NC(CCCO)C1=O (stereo not shown) [compound 1]
MIC [1, 11]: 2 µg/mL (≈ 5.19 µM)
MIC [1, 12]: 1 µg/mL (≈ 2.59 µM)
MIC [1, 13]: 32 µg/mL (≈ 83 µM)
MIC [1, 14]: 8 µg/mL (≈ 20.8 µM)
MIC (Table S5) ([1]; Aspergillus niger, species summary): 2
MIC [2, 11]: > 32 µg/mL
MIC [2, 12]: > 32 µg/mL
MIC [2, 13]: > 32 µg/mL
MIC [2, 14]: > 32 µg/mL
MIC (Table S5) ([2]; Aspergillus terreus, species summary): > 32
MIC [3, 11]: > 32 µg/mL
MIC [3, 12]: > 32 µg/mL
MIC [3, 13]: > 32 µg/mL
MIC [3, 14]: > 32 µg/mL
MIC (Table S5) ([3]; Fusarium solani, species summary): > 32
MIC [4, 11]: 0.5 µg/mL (≈ 1.3 µM)
MIC [4, 12]: 0.12 µg/mL (≈ 0.311 µM)
MIC [4, 13]: 16 µg/mL (≈ 41.5 µM)
MIC [4, 14]: 4 µg/mL (≈ 10.4 µM)
MIC (Table S5) ([4]; Mucor circinelloides, species summary): 0.5
MIC [5, 11]: 1 µg/mL (≈ 2.59 µM)
MIC [5, 12]: 0.5 µg/mL (≈ 1.3 µM)
MIC [5, 13]: 16 µg/mL (≈ 41.5 µM)
MIC [5, 14]: 8 µg/mL (≈ 20.8 µM)
MIC (Table S5) ([5]; Rhizopus oryzae, species summary): 1
MIC [6, 11]: 8 µg/mL (≈ 20.8 µM)
MIC [6, 12]: 1 µg/mL (≈ 2.59 µM)
MIC [6, 13]: > 32 µg/mL
MIC [6, 14]: > 32 µg/mL
MIC (Table S5) ([6]; Scedosporium apiospermum, species summary): 8
half-life [7]: 88 min
half-life [8]: 79 min
binding kinetics (IC50 vs concentration of active ALS) [9]: tight-binding kinetics
herbicidal activity [10]: modest herbicidal activity

Source: PMC12947280, “An Antifungal with a Novel Mechanism of Action Discovered via Resistance Gene-Guided Genome Mining” (ACS Central Science, 2026)
